# Measured values as given in patent US11827628B2, “Compositions and methods for inhibition of the JAK pathway” (Rigel Pharmaceuticals, Inc., priority 2005, dated 2023).
# pIC50: −log10 of the molar value. Where two headings read alike, the source gives them in different places.
# Key:
# [1] = system: IL-4 stimulated expression of CD23 in human Ramos B cells (JAK-1 and JAK-3); assay: Assay for Ramos B-Cell Line Stimulated with IL-4 (CD23 upregulation, FACS); format: cell-based; settings: Ramos B-cell line stimulated with IL-4; CD23 expression by FACS; read-out: IC50, Example 41
# How it was run: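 Read-out: anti-CD23-PE flow cytometry on Ramos B cells, giving IC50. Cells (5×10^4 per point, RPMI + 5% serum) get compound or DMSO for 1 h at 37 °C, then IL-4 50 units/mL final for 20-24 h.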
# Primary human T-cells = assay: Primary Human T-Cell Proliferation Assay Stimulated with IL-2 (CellTiter-Glo); format: cell-based; settings: read-out: IC50, Example 42
# How it was run: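 IC50 derived from CellTiter-Glo ATP signal after 72 hours of IL-2-driven proliferation at 37° C. Cells: primary human T-cells from blood, stimulated beforehand 3-4 days on anti-CD3/anti-CD28 with IL-2, then rested from IL-2 before compound exposure in duplicate; IL-2-free wells served as unstimulated control.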
# [2] = primary human T-cell proliferation stimulated with IL-2
Compound,pIC50 [1],pIC50 (Primary human T-cells; [2]),"pIC50 (Primary human T-cells; primary human T-cells stimulated with IL-2, proliferation)"
"COc1cc(Nc2ncc(F)c(Nc3ccc(OC(C)C#N)c(C)c3)n2)ccc1S(N)(=O)=O (racemic) [Compound I-64, Racemic N2-(4-Aminosulfonyl-3-methoxy)phenyl-N4-[4-(1-cyano)ethoxy-3-methyl]phenyl-5-fluoro-2,4-pyrimidinediamine]",6.95,5.73,
"Cc1cc(Nc2nc(Nc3cccc(S(N)(=O)=O)c3)ncc2F)ccc1OCC(N)=O [Compound I-92, N4-(4-Aminocarbonylmethoxy-3-methyl)phenyl-N2-(3-aminosulfonyl)phenyl-5-fluoro-2,4-pyrimidinediamine]",6.78,6.27,
"Cc1cc(Nc2nc(Nc3cccc(S(N)(=O)=O)c3)ncc2F)cc(C)c1OCC(N)=O [Compound I-93, N4-(4-Aminocarbonylmethoxy-3,5-dimethyl)phenyl-N2-(3-aminosulfonyl)phenyl-5-fluoro-2,4-pyrimidinediamine]",6.58,5.93,
"Cc1cc(Nc2nc(Nc3ccc(F)c(S(N)(=O)=O)c3)ncc2F)ccc1OC(C)C#N (racemic) [Compound I-69, Racemic N2-(3-Aminosulfonyl-4-fluoro)phenyl-N4-[4-(1-cyano)ethoxy-3-methyl]phenyl-5-fluoro-2,4-pyrimidinediamine]",6.93,5.99,
"Cc1ccc(Nc2ncc(F)c(Nc3ccc(NC(=O)CC#N)c(Cl)c3)n2)cc1S(N)(=O)=O [Compound I-83, N2-(3-Aminosulfonyl-4-methylphenyl)-N4-[3-chloro-4-(N-cyanoacetyl)aminophneyl]-5-fluoro-2,4-pyrimidinediamine]",6.80,5.76,
"Cc1cc(Nc2nc(Nc3ccc(S(N)(=O)=O)cc3)ncc2F)ccc1OC(C)C#N (racemic) [Compound I-60, Racemic N2-(4-Aminosulfonyl)phenyl-N4-[4-(1-cyano)ethoxy-3-methyl]phenyl-5-fluoro-2,4-pyrimidinediamine]",6.99,5.66,
"Cc1ccc(Nc2ncc(F)c(Nc3ccc4c(c3)CCN4S(C)(=O)=O)n2)cc1S(N)(=O)=O [VII-61, N2-(3-Aminosulfonyl-4-methylphenyl)-5-fluoro-N4-[4-(1-methylsulfonyl)indolin-5-yl]-2,4-pyrimidinediamine]",,,6.85

# Second part, led by results:
pIC50 [1],Compound,pIC50 (Primary human T-cells; [2]),"pIC50 (Primary human T-cells; primary human T-cells stimulated with IL-2, proliferation)"
7.28,"Cc1ccc(Nc2ncc(F)c(Nc3cc(C)c(OC(C)C#N)c(C)c3)n2)cc1S(N)(=O)=O (racemic) [Compound I-72, Racemic N2-(3-Aminosulfonyl-4-methyl)phenyl-N4-[4-(1-cyano)ethoxy-3,5-dimethyl]phenyl-5-fluoro-2,4-pyrimidinediamine]",6.52,
7.21,"Cc1cc(Nc2nc(Nc3ccc(F)c(S(N)(=O)=O)c3)ncc2F)ccc1OCC#N [Compound I-34, N2-(3-Aminosulfonyl-4-fluoro)phenyl-N4-(4-cyanomethoxy-3-methyl)phenyl-5-fluoro-2,4-pyrimidinediamine]",6.09,
7.01,"CNS(=O)(=O)c1cc(Nc2ncc(F)c(Nc3ccc(Cn4ccnc4)cc3)n2)ccc1C [III-83, 5-Fluoro-N2-[3-(N-methylaminosulfony)-4-methylphenyl]-5-fluoro-N4-[4-(1-imidazolylmethyl)phenyl]-2,4-pyrimidinediamine]",7.02,
7.48,"Cc1ccc(Nc2ncc(F)c(Nc3ccc(OC(C)C#N)cc3)n2)cc1S(N)(=O)=O (racemic) [Compound I-67, Racemic N2-(3-Aminosulfonyl-4-methyl)phenyl-N4-[4-(1-cyano)ethoxy]phenyl-5-fluoro-2,4-pyrimidinediamine]",6.81,
7.21,"Cc1cc(Nc2nc(Nc3cccc(S(N)(=O)=O)c3)ncc2F)cc(C)c1OC(C)C#N (racemic) [Compound I-71, Racemic N2-(3-Aminosulfonyl)phenyl-N4-[4-(1-cyano)ethoxy-3,5-dimethyl]phenyl-5-fluoro-2,4-pyrimidinediamine]",6.87,
